Assay [1] addresses Rev responsive element (RRE) RNA. Put plainly: Binding affinity to Rev response element RNA. The format is nucleic-acid assay.
Assay [2] has as its system Rev responsive element (RRE) RNA. Put plainly: Discrimination factor, Kd for tRNA/Kd for Rev response element RNA. In kind it is nucleic-acid assay.
In assay [3] the target is tRNA. Put plainly: Binding affinity to tRNA.
Assay [4] deals with Rev responsive element (RRE) RNA. Briefly: Inhibition of Rev binding to Rev response element RNA in presence of competitor RNA. The format is nucleic-acid assay.
Assay [5] shares this target. Put plainly: Inhibition of Rev binding to Rev response element RNA in absence of competitor RNA. The format is nucleic-acid assay.
Assay [6] deals with Rev responsive element (RRE) RNA. Briefly: Ratio of inhibition of Rev binding to Rev response element RNA in presence to absence of competitor RNA. The format is nucleic-acid assay.

Each structure is given as a SMILES string.

In assay [1], `Cc1cn(CC(=O)N(CCNC(=O)CN(CCNC(=O)CSCCCCCCSC[C@H]2O[C@@H](O[C@@H]3[C@@H](O)[C@H](N)C[C@H](N)[C@H]3O[C@H]3O[C@H](CN)[C@@H](O)[C@H](O)[C@H]3N)[C@H](O)[C@@H]2O[C@H]2O[C@@H](CN)[C@@H](O)[C@H](O)[C@H]2N)C(=O)Cn2ccc(N)nc2=O)CC(N)=O)c(=O)[nH]c1=O` yielded a Kd of 110 nM.
Consider `Cc1cn(CC(=O)N(CCNC(=O)CSCCCCCCSC[C@H]2O[C@@H](O[C@@H]3[C@@H](O)[C@H](N)C[C@H](N)[C@H]3O[C@H]3O[C@H](CN)[C@@H](O)[C@H](O)[C@H]3N)[C@H](O)[C@@H]2O[C@H]2O[C@@H](CN)[C@@H](O)[C@H](O)[C@H]2N)CC(=O)NCCN(CC(N)=O)C(=O)Cn2cnc3c(N)ncnc32)c(=O)[nH]c1=O`, for which the values for the dissociation constant Kd in assay [1] and in assay [3] were 71 nM and 230 nM, respectively. Further, the Ratio in assay [2] is 3.2.
As for `CC(=O)N(CCNC(=O)CSCCCCCCSC[C@H]1O[C@@H](O[C@@H]2[C@@H](O)[C@H](N)C[C@H](N)[C@H]2O[C@H]2O[C@H](CN)[C@@H](O)[C@H](O)[C@H]2N)[C@H](O)[C@@H]1O[C@H]1O[C@@H](CN)[C@@H](O)[C@H](O)[C@H]1N)CC(=O)NCCN(CC(N)=O)C(=O)Cn1cnc2c(O)nc(N)nc21`, the Kd in assay [1] turned out to be 130 nM. This counts as sub-micromolar.
The same measure, in the same setting: as for `NC[C@@H]1O[C@H](O[C@H]2[C@@H](O)[C@H](O[C@@H]3[C@@H](O)[C@H](N)C[C@H](N)[C@H]3O[C@H]3O[C@H](CN)[C@@H](O)[C@H](O)[C@H]3N)O[C@@H]2CO)[C@H](N)[C@@H](O)[C@@H]1O` [FRAMYCETIN], the figure is 180 nM; as for `Cc1cn(CC(=O)N(CCNC(=O)CN(CCNC(=O)CSCCCCCCSC[C@H]2O[C@@H](O[C@@H]3[C@@H](O)[C@H](N)C[C@H](N)[C@H]3O[C@H]3O[C@H](CN)[C@@H](O)[C@H](O)[C@H]3N)[C@H](O)[C@@H]2O[C@H]2O[C@@H](CN)[C@@H](O)[C@H](O)[C@H]2N)C(=O)Cn2cnc3c(N)ncnc32)CC(N)=O)c(=O)[nH]c1=O`, 250 nM.
Still for that read-out and setting: as for `NC[C@@H]1O[C@H](O[C@H]2[C@@H](O)[C@H](O[C@@H]3[C@@H](O)[C@H](N)C[C@H](N)[C@H]3O[C@H]3O[C@H](CN)[C@@H](O)[C@H](O)[C@H]3N)O[C@@H]2CSCCCCCCSCC(=O)NCCN(CC(=O)NCCN(CC(N)=O)C(=O)Cn2cnc3c(O)nc(N)nc32)C(=O)Cn2ccc(N)nc2=O)[C@H](N)[C@@H](O)[C@@H]1O`, the figure is 170 nM.
On the same count and under the same terms, as for `CC(=O)N(CCNC(=O)CSCCCCCCSC[C@H]1O[C@@H](O[C@@H]2[C@@H](O)[C@H](N)C[C@H](N)[C@H]2O[C@H]2O[C@H](CN)[C@@H](O)[C@H](O)[C@H]2N)[C@H](O)[C@@H]1O[C@H]1O[C@@H](CN)[C@@H](O)[C@H](O)[C@H]1N)CC(=O)NCCN(CC(N)=O)C(=O)Cn1ccc(N)nc1=O`, the figure is 320 nM; as for `NC[C@@H]1O[C@H](O[C@H]2[C@@H](O)[C@H](O[C@@H]3[C@@H](O)[C@H](N)C[C@H](N)[C@H]3O[C@H]3O[C@H](CN)[C@@H](O)[C@H](O)[C@H]3N)O[C@@H]2CSCCCCCCSCC(=O)NCCN(CC(=O)NCCN(CC(N)=O)C(=O)Cn2cnc3c(N)ncnc32)C(=O)Cn2ccc(N)nc2=O)[C@H](N)[C@@H](O)[C@@H]1O`, 130 nM.
Turning to `NC[C@@H]1O[C@H](O[C@H]2[C@@H](O)[C@H](O[C@@H]3[C@@H](O)[C@H](N)C[C@H](N)[C@H]3O[C@H]3O[C@H](CN)[C@@H](O)[C@H](O)[C@H]3N)O[C@@H]2CSCCCCCCSCC(=O)NCCN(CC(=O)NCCN(CC(N)=O)C(=O)Cn2cnc3c(O)nc(N)nc32)C(=O)Cn2cnc3c(O)nc(N)nc32)[C@H](N)[C@@H](O)[C@@H]1O`, the equilibrium dissociation constant (Kd) in assay [1] came out at 30 nM; in assay [3], 210 nM. Besides, the Ratio in assay [2] came to 7; in assay [6] it was 1.4. Moreover, the IC50 stood at 45000 nM in assay [4] and 32000 nM in assay [5].
Consider `CC(=O)N(CCNC(=O)CSCCCCCCSC[C@H]1O[C@@H](O[C@@H]2[C@@H](O)[C@H](N)C[C@H](N)[C@H]2O[C@H]2O[C@H](CN)[C@@H](O)[C@H](O)[C@H]2N)[C@H](O)[C@@H]1O[C@H]1O[C@@H](CN)[C@@H](O)[C@H](O)[C@H]1N)CC(=O)NCCN(CC(N)=O)C(=O)Cn1cc(C)c(=O)[nH]c1=O`, for which, in assay [1], binding was characterised by a dissociation constant (Kd) of 270 nM.
Same read-out and setting: with `Cc1cn(CC(=O)N(CCNC(=O)CN(CCNC(=O)CSCCCCCCSC[C@H]2O[C@@H](O[C@@H]3[C@@H](O)[C@H](N)C[C@H](N)[C@H]3O[C@H]3O[C@H](CN)[C@@H](O)[C@H](O)[C@H]3N)[C@H](O)[C@@H]2O[C@H]2O[C@@H](CN)[C@@H](O)[C@H](O)[C@H]2N)C(=O)Cn2cc(C)c(=O)[nH]c2=O)CC(N)=O)c(=O)[nH]c1=O` the figure was 130 nM.
Take `Cc1cn(CC(=O)N(CCNC(=O)CN(CCNC(=O)CSCCCCCCSC[C@H]2O[C@@H](O[C@@H]3[C@@H](O)[C@H](N)C[C@H](N)[C@H]3O[C@H]3O[C@H](CN)[C@@H](O)[C@H](O)[C@H]3N)[C@H](O)[C@@H]2O[C@H]2O[C@@H](CN)[C@@H](O)[C@H](O)[C@H]2N)C(=O)Cn2cnc3c(O)nc(N)nc32)CC(N)=O)c(=O)[nH]c1=O`: the equilibrium dissociation constant (Kd) was 93 nM in assay [1] and 220 nM in assay [3]. The Ratio in assay [2] was determined as 2.4.
The like results for `NC[C@@H]1O[C@H](O[C@H]2[C@@H](O)[C@H](O[C@@H]3[C@@H](O)[C@H](N)C[C@H](N)[C@H]3O[C@H]3O[C@H](CN)[C@@H](O)[C@H](O)[C@H]3N)O[C@@H]2CSCCCCCCSCC(=O)NCCN(CC(=O)NCCN(CC(N)=O)C(=O)Cn2ccc(N)nc2=O)C(=O)Cn2cnc3c(N)ncnc32)[C@H](N)[C@@H](O)[C@@H]1O` were, in that order, 51 nM, 76 nM and 1.5.
For `NC[C@@H]1O[C@H](O[C@H]2[C@@H](O)[C@H](O[C@@H]3[C@@H](O)[C@H](N)C[C@H](N)[C@H]3O[C@H]3O[C@H](CN)[C@@H](O)[C@H](O)[C@H]3N)O[C@@H]2CSCCCCCCSCC(=O)NCCN(CC(=O)NCCN(CC(N)=O)C(=O)Cn2cnc3c(O)nc(N)nc32)C(=O)Cn2cnc3c(N)ncnc32)[C@H](N)[C@@H](O)[C@@H]1O` the same measures were 38 nM, 170 nM and 4.5.
Consider `NC[C@@H]1O[C@H](O[C@H]2[C@@H](O)[C@H](O[C@@H]3[C@@H](O)[C@H](N)C[C@H](N)[C@H]3O[C@H]3O[C@H](CN)[C@@H](O)[C@H](O)[C@H]3N)O[C@@H]2CSCCCCCCSCC(=O)NCCN(CC(=O)NCCN(CC(N)=O)C(=O)Cn2ccc(N)nc2=O)C(=O)Cn2ccc(N)nc2=O)[C@H](N)[C@@H](O)[C@@H]1O`, for which the Kd in assay [1] worked out at 430 nM. This counts as sub-micromolar.
For `NC[C@@H]1O[C@H](O[C@H]2[C@@H](O)[C@H](O[C@@H]3[C@@H](O)[C@H](N)C[C@H](N)[C@H]3O[C@H]3O[C@H](CN)[C@@H](O)[C@H](O)[C@H]3N)O[C@@H]2CSCCCCCCSCC(=O)NCCN(CC(=O)NCCN(CC(N)=O)C(=O)Cn2cnc3c(N)ncnc32)C(=O)Cn2cnc3c(N)ncnc32)[C@H](N)[C@@H](O)[C@@H]1O`, the dissociation constant Kd is 58 nM in assay [1] and 410 nM in assay [3]. For the same molecule, the Ratio in assay [2] was 7.1; in assay [6] it was 1.2. In addition, the IC50 worked out at 68000 nM in assay [4] and 55000 nM in assay [5].
In assay [1], `Cc1cn(CC(=O)N(CCNC(=O)CSCCCCCCSC[C@H]2O[C@@H](O[C@@H]3[C@@H](O)[C@H](N)C[C@H](N)[C@H]3O[C@H]3O[C@H](CN)[C@@H](O)[C@H](O)[C@H]3N)[C@H](O)[C@@H]2O[C@H]2O[C@@H](CN)[C@@H](O)[C@H](O)[C@H]2N)CC(=O)NCCN(CC(N)=O)C(=O)Cn2ccc(N)nc2=O)c(=O)[nH]c1=O` had a Kd of 360 nM.
Still for that read-out and setting: with `NC[C@@H]1O[C@H](O[C@H]2[C@@H](O)[C@H](O[C@@H]3[C@@H](O)[C@H](N)C[C@H](N)[C@H]3O[C@H]3O[C@H](CN)[C@@H](O)[C@H](O)[C@H]3N)O[C@@H]2CSCCCCCCSCC(=O)NCCN(CC(=O)NCCN(CC(N)=O)C(=O)Cn2ccc(N)nc2=O)C(=O)Cn2cnc3c(O)nc(N)nc32)[C@H](N)[C@@H](O)[C@@H]1O` the figure was 240 nM; with `NC[C@@H]1O[C@H](O[C@H]2[C@@H](O)[C@H](O[C@@H]3[C@@H](O)[C@H](N)C[C@H](N)[C@H]3O[C@H]3O[C@H](CN)[C@@H](O)[C@H](O)[C@H]3N)O[C@@H]2CSCCCCCCSCC(=O)NCCN(CC(=O)NCCN(CC(N)=O)C(=O)Cn2cnc3c(N)ncnc32)C(=O)Cn2cnc3c(O)nc(N)nc32)[C@H](N)[C@@H](O)[C@@H]1O`, 200 nM.
As for `NC[C@@H]1O[C@H](O[C@H]2[C@@H](O)[C@H](O[C@@H]3[C@@H](O)[C@H](N)C[C@H](N)[C@H]3O[C@H]3O[C@H](CN)[C@@H](O)[C@H](O)[C@H]3N)O[C@@H]2CSCCNc2c3ccccc3nc3ccccc23)[C@H](N)[C@@H](O)[C@@H]1O`, the figures for the concentration for half-maximal inhibition (IC50) in assay [4] and in assay [5] were 9800 nM and 500 nM, respectively.

As usually defined, the Kd is the equilibrium constant for the complex coming apart. As a reminder, the IC50 is the concentration that inhibits the measured activity by half.
